Measured values from US9657073B2, “Inhibitors of Bcl-2” (Case Western Reserve University, priority 2010, dated 2017).
Where no end group is shown, it is not given here.

Legend:
[1] = system: IP3R-mediated Ca2+ release inhibited by BH4-Bcl-2; test: Unidirectional 45Ca2+-flux assay in permeabilized MEF cells; format: cell-based; details: 40 μM IDPDD/AA, 40 μM BH4-Bcl-2 peptide, 3 μM IP3, FIG. 7
Procedure: Twelve-well clusters containing MEF cells were fixed on a thermostated plate at 30° C. on a mechanical shaker. The culture medium was aspirated, and the cells were permeabilized by incubating them for 10 min in a solution containing 120 mM KCl, 30 mM imidazole-HCl (pH 6.8), 2 mM MgCl2, 1 mM ATP, 1 mM EGTA and 20 μg/ml saponin. The non-mitochondrial Ca^2+ stores were then loaded for 45 min in 120 mM KCl, 30 mM imidazole-HCl (pH 6.8), 5 mM MgCl2, 5 mM ATP, 0.44 mM EGTA, 10 mM NaN3 and 150 nM free ^45Ca^2+ (28 μCi/ml). Then, 1 ml of efflux medium containing 120 mM KCl, 30 mM imidazole-HCl (pH 6.8) and 1 mM EGTA was added and replaced every 2 min IP3 (3 μM) was added for 2 min after 10 min of efflux. BH4-Bcl2 peptide (40 μM), in the presence or not of IDPDD/AA peptide (40 μM), was added from 4 min before IP3 to 2 min after IP3. At the end of the experiment, all 45Ca^2+ remaining in the stores was released by incubation with 1 ml of a 2% (w/v) sodium dodecyl sulfate solution for 30 min Ca^2+ release was plotted as fractional loss (%/2 min) as a function of time, as previously described.

Bcl-2 = Bcl-2 (Homo sapiens, UniProt P10415); test: Biotin-streptavidin pulldown assay; format: binding; details: 200 μM biotin-peptide, lysate of WEHI7.2 cells overexpressing wild type Bcl-2
Procedure: WEHI7.2 cells overexpressing wild type Bcl-2 were washed twice with PBS and incubated on ice for 30 min in 400 ul CHAPS lysis buffer (50 mM Tris-HCL pH 7.5, 100 mM NaCL, 2 mM EDTA, 1% CHAPS, 50 mM NaF, 1 mM Na3VO4, protease inhibitor cocktail, PhosSTOP). Cell lysates were centrifuged for 15 min at 20,000 g at 4 C and the supernatant (protein concentration 5 mg/ml) was continuously rotated with 200 μM biotin-Scr or biotin-IDPDD/AA, or without peptide, at 4 C for 16 hr. Streptavidin Sepharose beads ([…]) (Pierce Pull-Down Biotinylated Protein:Protein Interaction Kit, Thermo, Cat #21115) were washed three times with tris buffered saline (25 mM Tris.HCL, 0.15M NaCl, pH 7) and then added to 400 μl cell lysate, followed by rotation for 2 hours at 4 C. After this, the beads were washed four times with tris buffered saline, centrifuging for 30-60 second each time. The beads were then incubated for 3-5 min at room temperature with 50 μl elution buffer provided with the Pierce pulldown kit (above) and centrifuged at 1,250×g for 30-60 seconds. The supernatant was boiled in SDS-PAGE sample buffer for 5 min and western blotting for Bcl-2 was performed as described above.

Bcl-2-IP3R interaction = target: T1, Bcl-2-IP3R interaction (Homo sapiens, UniProt P10415); test: Co-immunoprecipitation assay; format: binding; details: 200 μM peptide, lysate of WEHI7.2 cells overexpressing wild type Bcl-2
T1 construct: expressed in transfected cells; host or cells: WEHI7.2 (murine T cell lymphoma); IP3R endogenous
Procedure: One hundred million WEHI7.2 cells overexpressing wild type Bcl-2 were washed twice with PBS and then lysed on ice for 30 min in 1 ml CHAPS buffer. The supernatant was prepared by centrifugation for 15 min at 20,000 g at 4° C. The supernatant (1 ml) was mixed with 100 μl 50% protein G in Tris 50 mM pH 7.5 buffer and rotated at 4 C for 2 hrs. After removing the beads, the supernatant was incubated with 200 μM peptide (Scr or IDPDD/AA, or without peptide addition, for 2 hrs at 4° C. Then hamster anti-human Bcl-2 antibody was added (final dilution 1:250) and the supernatant was rotated for 16 hrs at 4 C, followed by rotation in the presence of 50 μl protein G (50% beads) for 2 hours at 4 C. The beads were washed six times with CHAPS buffer and boiled for 5 min in SDS sample buffer followed by resolution of proteins by SDS-PAGE and analysis by western blotting for the IP3R using anti-IP3R antibody (BD Biosciences (Cat #610313) at 1:2,000 dilution and for Bcl-2 as described above.

[2] = system: Bcl-2-positive WEHI7.2 cells; details: data not shown
Jurkat cells = test: Single cell digital imaging of intracellular Ca2+ (Fura-2); format: cell-based, human; details: for effect on percentage of cells displaying peptide-induced Ca2+ oscillations: xestospongin C 10 μM, U73122 0.25 μM, peptide 10 μM, 90 min, FIG. 8A
Procedure: (§1) WEHI7.2 cells were cultured in DMEM supplemented with 10% fetal calf serum, L-glutamine (2 mM), and nonessential amino acids (100 μM). Transfections of WEHI7.2 cells with expression vectors encoding wild type Bcl-2 and Bcl-2RS/GG were described previously. Jurkat cells and RS11846 cells were cultured in RPMI medium supplemented with 10% fetal bovine serum, L-glutamine (2 mM), and nonessential amino acids (100 μM). Cells were maintained in 5% carbon dioxide at high humidity.
(§2) Methods of Ca^2+ imaging, described in detail previously, were employed here with only minor modification. Briefly, cells adhered to poly-L-lysine-coated coverslips (35-mm coverslip dishes, MatTek Corp., Ashland, Mass.) were loaded with 1 μM Fura-2 AM for 45 min at 25° C. in extracellular buffer (ECB) (130 mM NaCl, 5 mM KCl, 1.5 mM CaCl2, 1 mM MgCl2, 25 mM Hepes, pH 7.5, 1 mg/ml BSA, and 5 mM glucose). The buffer was replaced with fresh ECB and the incubation continued for […] at 25° C. to permit de-esterification. Culture dishes were mounted on the non-heated stage of an inverted microscope (Olympus CKX41) equipped with a 20× Fluor objective. Excitation light was alternated between 340 and 380 nm by a filter wheel (Sutter Instrument Co.), with 0.8 sec and 0.2 sec exposure times respectively, and emitted light was filtered at >510 nm and collected with an intensified charge-coupled device camera (Cooke 12 bit VGA). The video signal was digitized using InCyt Im2 software (Intracellular Imaging) and subsequently processed using Microsoft Excel. To determine Rmin cells were perfused with ECB deficient in Ca^2+ and supplemented with 4 mM EGTA and 10 μM ionomycin. Rmax was obtained by perfusing cells with ECB supplemented with 4 mM CaCl2 and 10 μM ionomycin. […] In most experiments peptides were fused with the cell penetrating peptide of HIV TAT to facilitate uptake by cells. In some experiments peptides, without linkage to TAT, were delivered into cells using Chariot reagent (Active Motif) as previously described. Xestospongin C (Enzo Life Sciences International) and U73122 (Sigma), both dissolved in DMSO, were added to cells […] prior to Ca^2+ measurements.

Bcl-XL = Bcl-XL (Homo sapiens, UniProt Q07817); details: read-out: inhibitory concentration of 50% (IC50) for displacing BH3 peptides; cited from earlier work
Bcl-B = target: T2, Bcl-B (Homo sapiens, UniProt Q9HD36); details: read-out: inhibitory concentration of 50% (IC50) for displacing BH3 peptides; cited from earlier work
T2 sequence (Q9HD36 1-204): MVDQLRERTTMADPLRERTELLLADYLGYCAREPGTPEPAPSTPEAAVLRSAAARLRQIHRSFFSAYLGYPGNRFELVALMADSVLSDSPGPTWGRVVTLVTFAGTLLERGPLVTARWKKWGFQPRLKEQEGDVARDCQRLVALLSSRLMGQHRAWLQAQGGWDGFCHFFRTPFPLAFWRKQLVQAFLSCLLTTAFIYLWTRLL

Bfl-1 = target: T3, Bfl-1 (Homo sapiens, UniProt Q16548); details: read-out: inhibitory concentration of 50% (IC50) for displacing BH3 peptides; cited from earlier work
T3 sequence (Q16548 1-175): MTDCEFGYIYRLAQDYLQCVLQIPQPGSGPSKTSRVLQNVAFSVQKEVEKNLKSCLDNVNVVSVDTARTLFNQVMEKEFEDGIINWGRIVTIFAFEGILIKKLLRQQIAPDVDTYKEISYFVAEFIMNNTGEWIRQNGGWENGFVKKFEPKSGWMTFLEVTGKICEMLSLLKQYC

primary CLL cells [3] = test: Single cell digital imaging of intracellular Ca2+ (Fura-2); format: cell-based, human
Excerpt: (§3) Lymphocytes were freshly separated from heparinized peripheral blood obtained from normal adult volunteers or adult patients with chronic lymphocytic leukemia (CLL) meeting standard diagnostic guidelines. Patients had either never received treatment or had received treatment over two years prior to obtaining samples. We conformed to all guidelines and regulations in accordance with Internal Review Board protocols ICC2902/11-02-28 (Case Western Reserve University Cancer Center/University Hospitals of Cleveland Ireland Cancer Center). Cells were separated by centrifugation through Ficoll-Hypaque and suspended in RPMI medium supplemented with 10% fetal bovine serum, L-glutamine (2 mM), and nonessential amino acids (100 μM) at a density of 2 million cells/ml. Normal CD19+ B cells were pooled from healthy individuals between 26 and 32 years of age, in accordance with IRB-approval (as above). Mononuclear cells were separated by Ficoll-Hypaque centrifugation, and further isolation of B and T cells was achieved by magnetic separation using CD19 microbeads (Miltenyi Biotec, Bergisch Gladbach, Germany).
as §2

primary CLL cells [4] = test: Apoptosis and cell death assays (trypan blue, propidium iodide, Hoechst nuclear morphology, Annexin V); format: cell-based, human
Excerpt: as §3, with “Patients had either never received treatment or had received treatment over two years prior to obtaining samples.” left out
Apoptosis was quantified according to apoptotic nuclear morphology and by detection of phosphatidylserine exposure on the plasma membrane. […] Images were obtained using a chargecoupled device camera (Hamamatsu Photonics, Shizuoka, Japan) and digitally converted by Simple PCI software (Hamamatsu Photonics). Membrane translocation of phosphatidylserine was detected by Annexin V staining. Annexin V-positive cells were assessed by flow cytometry using an ARIA flow cytometer (Beckman Coulter, Pasadena, Calif., USA). All flow cytometry data were analyzed using FlowJo 8.8.4 for Macintosh (Treestar, Ashland, Oreg., USA). Dead cells were identified according to their inability to exclude trypan blue dye or propidium iodide. Trypan blue dye uptake into cells was detected by light microscopy using a 40× objective and quantified by counting up to 400 cells. Propidium iodide uptake was quantified by flow cytometry in association with the Annexin V measurement described above.

[5] = system: Bcl-2-positive WEHI7.2 cells; test: Single cell digital imaging of intracellular Ca2+ (Fura-2); format: cell-based, murine
Procedure: as §1
Methods of Ca^2+ imaging, described in detail previously, were employed here with only minor modification. Briefly, cells adhered to poly-L-lysine-coated coverslips (35-mm coverslip dishes, MatTek Corp., Ashland, Mass.) were loaded with 1 μM Fura-2 AM for 45 min at 25° C. in extracellular buffer (ECB) (130 mM NaCl, 5 mM KCl, 1.5 mM CaCl2, 1 mM MgCl2, 25 mM Hepes, pH 7.5, 1 mg/ml BSA, and 5 mM glucose). The buffer was replaced with fresh ECB and the incubation continued for […] at 25° C. to permit de-esterification. Culture dishes were mounted on the non-heated stage of an inverted microscope (Olympus CKX41) equipped with a 20× Fluor objective. […]

Chain of Bcl-XL (Q07817 whole entry, species assumed): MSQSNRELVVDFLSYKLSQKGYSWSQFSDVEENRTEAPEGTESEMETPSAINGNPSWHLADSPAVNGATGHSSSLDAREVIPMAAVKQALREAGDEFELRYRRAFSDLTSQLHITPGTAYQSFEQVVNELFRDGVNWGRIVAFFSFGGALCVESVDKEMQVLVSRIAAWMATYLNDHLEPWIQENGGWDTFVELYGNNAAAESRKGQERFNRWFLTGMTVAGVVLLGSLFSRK
T1 sequence (P10415 whole entry): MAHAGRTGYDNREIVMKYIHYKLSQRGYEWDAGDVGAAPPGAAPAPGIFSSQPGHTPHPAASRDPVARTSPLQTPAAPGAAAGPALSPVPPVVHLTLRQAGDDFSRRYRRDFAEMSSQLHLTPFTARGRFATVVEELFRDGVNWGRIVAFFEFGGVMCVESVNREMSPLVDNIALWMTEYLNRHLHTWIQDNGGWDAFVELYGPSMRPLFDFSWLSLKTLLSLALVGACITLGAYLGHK
Chain of Bcl-2 (P10415 whole entry, species assumed): as the sequence (P10415 whole entry) above

NVYTEIKCNSLLPLAAIVRV (listed as Homo sapiens) [IDPDD/AA, IDP with DD/AA substitution, without TAT]
effect on Bcl-2-imposed inhibition of IP3-induced 45Ca2+ efflux from the ER [1]: reversed
interaction with Bcl-2 (Bcl-2): documented
disruption of Bcl-2-IP3R interaction (Bcl-2-IP3R interaction): confirmed

RKKRRQRRRGGNVYTEIKCNSLLPLDDIVRV [TAT-IDP]
cell viability following treatment [2]: not lost

pepstatin A
effect of pretreatment on amplitude of peptide-induced Ca2+ elevations (Jurkat cells; TAT-IDP in Jurkat cells): significant enhancement
effect of pretreatment on percentage of cells displaying peptide-induced calcium elevations (Jurkat cells; TAT-IDP in Jurkat cells): slight, but not significant, increase

Cc1cc2c(C(C)C)c(O)c(O)c(C=O)c2c(O)c1-c1c(C)cc2c(C(C)C)c(O)c(O)c(C=O)c2c1O [Gossypol, 1,6,7,1′,6′,7′-Hexahydroxy-5,5′-diisopropyl-3,3′-dimethyl-[2,2′]binaphthalenyl-8,8′-dicarbaldehyde]
IC50 (Bcl-XL): ~500 nM
IC50 (Bcl-B): ~500 nM
IC50 (Bfl-1): ~500 nM

C1CCC[C@H]2CCCN3CC[C@@H](CCCCCC[C@@H]4CCCN5CC[C@@H](CC1)O[C@@H]45)O[C@@H]23 [xestospongin C, reference compound]
effect on percentage of cells displaying peptide-induced Ca2+ oscillations (Jurkat cells): reduced
effect on Ca2+ responses to TAT-IDP and TAT-IDPDD/AA (primary CLL cells [3]; CLL cells): inhibited
effect on apoptosis induction by TAT-IDPDD/AA (primary CLL cells [4]; CLL cells): inhibited

CN(C)CCC(CSc1ccccc1)Nc1ccc(S(=O)(=O)NC(=O)c2ccc(N3CCN(Cc4ccccc4-c4ccc(Cl)cc4)CC3)cc2)cc1[N+](=O)[O-] (centres unmarked) [ABT-737, N-[4-[4-(4′-Chloro-biphenyl-2-ylmethyl)-piperazin-1-yl]-benzoyl)-4-(3-dimethylamino-1-phenylsulfanylmethyl-propylamino)-3-nitro-benzenesulfonamide, reference compound]
induction of Ca2+ elevation (primary CLL cells [3]; 2 μM ABT-737, FIG. 11A): did not induce Ca^2+ elevation
death of CLL cells (primary CLL cells [4]; 2 μM, 24 hr, trypan blue dye uptake, FIG. 11B): 40%

IDP: synthetic IP3R-derived peptide, 20 amino acid sequence within the Bcl-2-binding site on the IP3R (RKKRRQRRRGGNVYTEIKCNSLLPLDDIVRV; listed as Homo sapiens)
number of Ca2+ spikes observed per cell ([5]; 2 μM peptide, 70 min recordings, FIG. 2): very infrequent
induction of Ca2+ elevations ([5]; peptide introduced by Chariot peptide uptake reagent, data not shown): induced Ca^2+ elevations

COc1ccc2c(c1)CC[C@@H]1[C@@H]2CC[C@]2(C)[C@@H](NCCCCCCN3C(=O)C=CC3=O)CC[C@@H]12 [U73122]
effect on percentage of cells displaying peptide-induced Ca2+ oscillations (Jurkat cells): reduced
